Assays:
TrkA = molecular target: T1, TrkA (Homo sapiens, UniProt P04629); experiment: Enzyme Fragment Complementation cell-based assay, TrkA; settings: U2OS-cells over-expressing TrkA; ligand 10 ng/mL; 3 hours incubation
T1 construct: expressed in transfected cells; host or cells: U2OS
From the text: (§1) A high throughput cell-based screen has been used to identify positive modulators of TrkA, TrkB and TrkC. The screen involves the use of cell-based assay overexpressing TrkA, TrkB or TrkC. The purpose of the assay is to identify compounds that modulate neurotrophin signalling (Forsell et al 2012). The assay can be used in inhibitor mode using a high concentration of ligand, in modulator mode using an intermediate concentration and in agonist mode using a low concentration of ligand.
(§2) The assay uses Enzyme Fragment Complementation (EFC) technique, which is a proximity-based assay. Briefly, cells used in this assay over-express two fusion proteins, i.e. the receptor, which can be either one of TrkA, TrkB, TrkC, IGF1R or FGFR1, fused to a small peptide of beta-galactosidase and an adaptor protein, i.e. SHC1 (or any other Trk-adaptor protein) fused to the major part of beta-galactosidase. […] The proximity between the small activating peptide on the receptor and the major part of beta-galactosidase on the adaptor protein leads to an active beta-galactosidase enzyme. The activation of the receptor is quantified by measuring the amount of active beta-galactosidase by its conversion of a non-luminescent substrate into a luminescent product.
(§3) U2OS-cells, over-expressing TrkA or TrkB or TrkC, are plated in 96- or 384-well plates and incubated overnight. Alternatively, cryopreserved HEK293-cells expressing IGFR1 or cryopreserved U2OS-cells expressing FGFR1 were plated in 96- or 384-well plates. On the following day, test compound was pre-mixed with ligand (NGF, BDNF, NT-3, IGF-1 or basic fibroblast growth factor (bFGF(FGF-2))) and the ligand-compound mixture is then added to the cells to yield a final ligand concentration of 10 ng/mL. After 3 hours of incubation at room temperature, the incubation is stopped by the addition of a beta-galactosidase substrate mixture containing detergents. The substrate mixture is incubated for 60 minutes at ambient temperature. The luminescence is thereafter read by the use of a plate reader.

TrkB = molecular target: T2, TrkB (Homo sapiens, UniProt Q16620); experiment: Enzyme Fragment Complementation cell-based assay, TrkB; settings: U2OS-cells over-expressing TrkB; ligand 10 ng/mL; 3 hours incubation
T2 construct: expressed in transfected cells; host or cells: U2OS
From the text: as §1, §2, §3

T1 sequence (P04629 33-796): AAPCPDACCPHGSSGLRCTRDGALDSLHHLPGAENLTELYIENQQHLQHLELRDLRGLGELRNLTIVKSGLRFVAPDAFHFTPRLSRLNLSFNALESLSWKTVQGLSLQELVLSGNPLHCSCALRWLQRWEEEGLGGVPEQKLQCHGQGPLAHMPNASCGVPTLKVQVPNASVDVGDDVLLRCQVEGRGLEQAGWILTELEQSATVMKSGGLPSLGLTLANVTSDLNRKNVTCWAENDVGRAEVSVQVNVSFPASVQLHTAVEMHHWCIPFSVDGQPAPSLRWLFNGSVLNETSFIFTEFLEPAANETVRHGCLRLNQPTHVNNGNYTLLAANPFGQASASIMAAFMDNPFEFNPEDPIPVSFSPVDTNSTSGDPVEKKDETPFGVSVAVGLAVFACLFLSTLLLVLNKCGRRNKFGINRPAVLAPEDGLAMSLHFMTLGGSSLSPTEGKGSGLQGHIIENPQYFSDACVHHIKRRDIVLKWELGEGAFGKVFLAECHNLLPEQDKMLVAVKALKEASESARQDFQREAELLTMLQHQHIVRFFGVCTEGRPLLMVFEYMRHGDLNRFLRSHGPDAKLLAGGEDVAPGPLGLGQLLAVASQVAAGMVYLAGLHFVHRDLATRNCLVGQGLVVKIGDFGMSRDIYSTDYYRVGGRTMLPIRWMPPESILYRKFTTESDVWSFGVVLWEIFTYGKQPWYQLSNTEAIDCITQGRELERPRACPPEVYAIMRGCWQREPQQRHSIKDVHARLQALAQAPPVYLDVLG
T2 sequence (Q16620 32-822): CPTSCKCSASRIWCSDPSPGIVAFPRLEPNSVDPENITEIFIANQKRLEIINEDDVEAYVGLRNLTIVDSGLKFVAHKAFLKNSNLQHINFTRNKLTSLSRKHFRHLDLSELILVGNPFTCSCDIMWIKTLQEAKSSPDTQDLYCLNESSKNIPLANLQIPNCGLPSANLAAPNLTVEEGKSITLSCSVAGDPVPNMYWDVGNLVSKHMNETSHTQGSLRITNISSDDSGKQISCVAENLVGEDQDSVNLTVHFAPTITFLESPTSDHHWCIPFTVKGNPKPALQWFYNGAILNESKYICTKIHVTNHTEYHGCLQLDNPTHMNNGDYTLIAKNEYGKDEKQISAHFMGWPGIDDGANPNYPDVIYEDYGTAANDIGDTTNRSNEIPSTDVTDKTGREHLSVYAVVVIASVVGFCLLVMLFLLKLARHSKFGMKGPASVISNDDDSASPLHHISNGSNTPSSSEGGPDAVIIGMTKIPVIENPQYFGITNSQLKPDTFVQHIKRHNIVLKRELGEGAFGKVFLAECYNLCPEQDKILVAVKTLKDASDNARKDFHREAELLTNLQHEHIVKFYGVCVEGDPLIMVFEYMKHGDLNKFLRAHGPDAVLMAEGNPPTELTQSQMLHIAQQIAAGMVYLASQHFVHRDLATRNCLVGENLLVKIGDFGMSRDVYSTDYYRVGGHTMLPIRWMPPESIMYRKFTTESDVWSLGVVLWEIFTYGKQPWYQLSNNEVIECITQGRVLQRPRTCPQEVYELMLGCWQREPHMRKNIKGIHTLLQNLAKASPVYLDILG

SMILES | EC50 (TrkA) [nM] | EC50 (TrkB) [nM]
Cn1c(=O)[nH]c(=O)n(-c2ccc3c(cnn3-c3ccccc3)c2)c1=O [Example 31, 1-methyl-3-(1-phenyl-1H-indazol-5-yl)-1,3,5-triazinane-2,4,6-trione] | 46000 | 69000
Cc1cc(-n2c(=O)[nH]c(=O)n(-c3cccc(OC(F)(F)F)c3)c2=O)ccc1Oc1ccccc1 [Example 44, 1-(3-methyl-4-phenoxyphenyl)-3-[3-(trifluoromethoxy)phenyl]-1,3,5-triazinane-2,4,6-trione] | 330 | 260
COCCOc1cc(-n2c(=O)[nH]c(=O)n(-c3cccc(OC)c3)c2=O)ccc1Oc1ccccc1 [Example 61, 1-[3-(2-methoxyethoxy)-4-phenoxyphenyl]-3-(3-methoxyphenyl)-1,3,5-triazinane-2,4,6-trione] | 420 | 380
Cc1ccc(-n2c(=O)[nH]c(=O)n(-c3cnc(Oc4ccccc4)c(C)c3)c2=O)cc1 [Example 78, 1-(5-Methyl-6-phenoxypyridin-3-yl)-3-(p-tolyl)-1,3,5-triazinane-2,4,6-trione] | 3510 | 3830
COCCOc1cc(-n2c(=O)[nH]c(=O)n(-c3ccc(OC)cc3)c2=O)ccc1Oc1ccccc1 [Example 60, 1-[3-(2-methoxyethoxy)-4-phenoxyphenyl]-3-(4-methoxyphenyl)-1,3,5-triazinane-2,4,6-trione] | 300 | 220
Cc1ccccc1Oc1ccc(-n2c(=O)[nH]c(=O)n(-c3ccccc3)c2=O)cc1C [Example 62, 1-[3-methyl-4-(2-methylphenoxy)phenyl]-3-phenyl-1,3,5-triazinane-2,4,6-trione] | 930 | 3180
COc1ccc(-n2c(=O)[nH]c(=O)n(-c3ccc(Oc4ccccc4)c(OC)c3)c2=O)cc1 [Example 53, 1-(3-methoxy-4-phenoxyphenyl)-3-(4-methoxyphenyl)-1,3,5-triazinane-2,4,6-trione] | 960 | 780
COc1cccc(-n2c(=O)[nH]c(=O)n(-c3ccc(Oc4ccccc4)c(OC)c3)c2=O)c1 [Example 52, 1-(3-methoxy-4-phenoxyphenyl)-3-(3-methoxyphenyl)-1,3,5-triazinane-2,4,6-trione] | 380 | 410
CN(C)C(=O)Cc1cc(-n2c(=O)[nH]c(=O)n(-c3ccccc3)c2=O)ccc1Oc1ccccc1 [Example 76, 1-{3-[2-(Dimethylamino)-2-oxoethyl]-4-phenoxyphenyl}-3-phenyl-1,3,5-triazinane-2,4,6-trione] | 33000 | 4530
COc1cc(-n2c(=O)[nH]c(=O)n(C)c2=O)cc(C)c1Oc1ccccc1 [Example 32, 1-(3-methoxy-5-methyl-4-phenoxyphenyl)-3-methyl-1,3,5-triazinane-2,4,6-trione] | 800 | 
Cc1cc(-n2c(=O)[nH]c(=O)n(-c3cscn3)c2=O)ccc1Oc1ccccc1 [Example 63, 1-(3-methyl-4-phenoxyphenyl)-3-(1,3-thiazol-4-yl)-1,3,5-triazinane-2,4,6-trione] | 2380 | 950
COC(=O)c1cc(-n2c(=O)[nH]c(=O)n(-c3ccccc3)c2=O)ccc1Oc1ccccc1 [Example 74, methyl 2-phenoxy-5-(2,4,6-trioxo-3-phenyl-1,3,5-triazinan-1-yl)benzoate] | 580 | 540
N#Cc1cccc(-n2c(=O)[nH]c(=O)n(-c3ccc(Oc4ccccc4)cc3)c2=O)c1 [Example 3, 3-[2,4,6-trioxo-3-(4-phenoxyphenyl)-1,3,5-triazinan-1-yl]benzonitrile] | 6700 | 
Cc1ccc(-n2c(=O)[nH]c(=O)n(-c3ccc(Oc4ccccc4)cc3C)c2=O)cc1 [Example 71, 1-(2-methyl-4-phenoxyphenyl)-3-(4-methylphenyl)-1,3,5-triazinane-2,4,6-trione] | 1660 | 610
COc1c(-n2c(=O)[nH]c(=O)n(-c3ccccc3)c2=O)ccc(Oc2ccccc2)c1C [Example 33, 1-(2-methoxy-3-methyl-4-phenoxyphenyl)-3-phenyl-1,3,5-triazinane-2,4,6-trione] | 230 | 100
Cc1cc(-n2c(=O)[nH]c(=O)n(-c3ccc(Oc4ccccc4)c(C)c3)c2=O)ccc1Oc1ccccc1 [Example 67, 1,3-bis(3-methyl-4-phenoxyphenyl)-1,3,5-triazinane-2,4,6-trione] | 3200 | 26000

SMILES | EC50 (TrkA) [nM] | EC50 (TrkB) [nM]
COCCOc1cc(-n2c(=O)[nH]c(=O)n(-c3ccc(C)s3)c2=O)ccc1Oc1ccccc1 [Example 66, 1-[3-(2-methoxyethoxy)-4-phenoxyphenyl]-3-(5-methylthiophen-2-yl)-1,3,5-triazinane-2,4,6-trione] | 370 | 370
COc1cccc(-n2c(=O)[nH]c(=O)n(-c3ccc(Oc4ccccc4)c(C)c3)c2=O)c1 [Example 50, 1-(3-methoxyphenyl)-3-(3-methyl-4-phenoxyphenyl)-1,3,5-triazinane-2,4,6-trione] | 310 | 190
Cc1cc(-n2c(=O)[nH]c(=O)n(-c3ccccn3)c2=O)ccc1Oc1ccccc1 [Example 18, 1-(3-methyl-4-phenoxyphenyl)-3-(pyridin-2-yl)-1,3,5-triazinane-2,4,6-trione] | 870 | 140
Cc1cc(-n2c(=O)[nH]c(=O)n(-c3cccc4occc34)c2=O)ccc1Oc1ccccc1 [Example 72, 1-(1-benzofuran-4-yl)-3-(3-methyl-4-phenoxyphenyl)-1,3,5-triazinane-2,4,6-trione] | 200 | 110
Cc1cc(-n2c(=O)[nH]c(=O)n(-c3ccc4c(c3)OCO4)c2=O)ccc1Oc1ccccc1 [Example 48, 1-(2H-1,3-benzodioxol-5-yl)-3-(3-methyl-4-phenoxyphenyl)-1,3,5-triazinane-2,4,6-trione] | 500 | 260
COc1cc(Oc2ccccc2)c(C)cc1-n1c(=O)[nH]c(=O)n(-c2ccccc2)c1=O [Example 13, 1-(2-methoxy-5-methyl-4-phenoxyphenyl)-3-phenyl-1,3,5-triazinane-2,4,6-trione] | 620 | 450
Cc1cc(-n2c(=O)[nH]c(=O)n(-c3cccc(Cl)c3)c2=O)ccc1Oc1ccccc1 [Example 43, 1-(3-chlorophenyl)-3-(3-methyl-4-phenoxyphenyl)-1,3,5-triazinane-2,4,6-trione] | 160 | 120
Cc1cc(-n2c(=O)[nH]c(=O)n(-c3ccccc3)c2=O)ccc1Cc1ccccc1 [Example 42, 1-(4-benzyl-3-methylphenyl)-3-phenyl-1,3,5-triazinane-2,4,6-trione] | 190 | 280
COc1ccccc1-n1c(=O)[nH]c(=O)n(-c2ccc(Oc3ccccc3)c(C)c2)c1=O [Example 51, 1-(2-methoxyphenyl)-3-(3-methyl-4-phenoxyphenyl)-1,3,5-triazinane-2,4,6-trione] | 180 | 260
CN(C)C(=O)COc1cc(-n2c(=O)[nH]c(=O)n(-c3ccccc3)c2=O)ccc1Oc1ccccc1 [Example 77, 1-{3-[2-(Dimethylamino)-2-oxoethoxy]-4-phenoxyphenyl}-3-phenyl-1,3,5-triazinane-2,4,6-trione] | 430 | 360
COc1cc(-n2c(=O)[nH]c(=O)n(-c3ccccc3)c2=O)cc(C)c1Oc1ccccc1 [Example 14, 1-(3-methoxy-5-methyl-4-phenoxyphenyl)-3-phenyl-1,3,5-triazinane-2,4,6-trione] | 490 | 
O=c1[nH]c(=O)n(-c2ccc3c(cnn3-c3ccccc3)c2)c(=O)n1-c1ccccc1 [Example 19, 1-phenyl-3-(1-phenyl-1H-indazol-5-yl)-1,3,5-triazinane-2,4,6-trione] | 820 | 880
Cc1cc(-n2c(=O)[nH]c(=O)n(-c3ccccc3)c2=O)c(C)cc1Oc1ccccc1 [Example 54, 1-(2,5-dimethyl-4-phenoxyphenyl)-3-phenyl-1,3,5-triazinane-2,4,6-trione] | 440 | 310
Cc1cc(Oc2ccccc2)ccc1-n1c(=O)[nH]c(=O)n(-c2ccccc2)c1=O [Example 70, 1-(2-methyl-4-phenoxyphenyl)-3-phenyl-1,3,5-triazinane-2,4,6-trione] | 660 | 350
Cc1cc(-n2c(=O)[nH]c(=O)n(-c3ccc4occc4c3)c2=O)ccc1Oc1ccccc1 [Example 46, 1-(1-benzofuran-5-yl)-3-(3-methyl-4-phenoxyphenyl)-1,3,5-triazinane-2,4,6-trione] | 480 | 240
Cc1cc(-n2c(=O)[nH]c(=O)n(-c3ccc(F)cc3)c2=O)ccc1Oc1ccccc1 [Example 45, 1-(4-fluorophenyl)-3-(3-methyl-4-phenoxyphenyl)-1,3,5-triazinane-2,4,6-trione] | 470 | 360

From patent US12209071B2, “Triazine derivatives for treating diseases relating to neurotrophins” (AlzeCure Pharma AB, priority 2018, dated 2025)
